Measured values taken from ChEMBL document CHEMBL1921797, “Synthesis and biological evaluation of arylated novobiocin analogs as Hsp90 inhibitors” (Bioorg Med Chem Lett, 2011).
Active and inactive are the calls of the source. No cut-off for these calls is given here.

How the values were obtained:
MCF7 [1] = test: Antiproliferative activity against human MCF7 cells; format: functional, cell-based
SK-BR-3 = test: Antiproliferative activity against human SKBR3 cells; format: functional, cell-based
[2] = target: Heat shock protein HSP 90-beta (Homo sapiens) (UniProt P08238); test: Inhibition of human C-terminal domain of Hsp90 in MCF7 cells assessed as Her2 degradation at 0.1 to 100 uM by Western blotting; format: cell-based
[3] = target: Heat shock protein HSP 90-beta (Homo sapiens) (UniProt P08238); test: Inhibition of human C-terminal domain of Hsp90 in MCF7 cells assessed as Raf degradation at 0.1 to 100 uM by Western blotting; format: cell-based
[4] = target: Heat shock protein HSP 90-beta (Homo sapiens) (UniProt P08238); test: Induction of human Hsp90 activity in MCF7 cells at 0.1 to 100 uM by Western blotting; format: cell-based
[5] = target: Heat shock protein HSP 90-beta (Homo sapiens) (UniProt P08238); test: Inhibition of human C-terminal domain of Hsp90 in MCF7 cells assessed as Akt degradation at 0.1 to 100 uM by Western blotting; format: cell-based
MCF7 [6] = test: Ratio of IC50 for human SKBR3 cells to IC50 for human MCF7 cells; format: functional

Sequence of Heat shock protein HSP 90-beta (Homo sapiens) (P08238 whole entry, the tested form may be a part): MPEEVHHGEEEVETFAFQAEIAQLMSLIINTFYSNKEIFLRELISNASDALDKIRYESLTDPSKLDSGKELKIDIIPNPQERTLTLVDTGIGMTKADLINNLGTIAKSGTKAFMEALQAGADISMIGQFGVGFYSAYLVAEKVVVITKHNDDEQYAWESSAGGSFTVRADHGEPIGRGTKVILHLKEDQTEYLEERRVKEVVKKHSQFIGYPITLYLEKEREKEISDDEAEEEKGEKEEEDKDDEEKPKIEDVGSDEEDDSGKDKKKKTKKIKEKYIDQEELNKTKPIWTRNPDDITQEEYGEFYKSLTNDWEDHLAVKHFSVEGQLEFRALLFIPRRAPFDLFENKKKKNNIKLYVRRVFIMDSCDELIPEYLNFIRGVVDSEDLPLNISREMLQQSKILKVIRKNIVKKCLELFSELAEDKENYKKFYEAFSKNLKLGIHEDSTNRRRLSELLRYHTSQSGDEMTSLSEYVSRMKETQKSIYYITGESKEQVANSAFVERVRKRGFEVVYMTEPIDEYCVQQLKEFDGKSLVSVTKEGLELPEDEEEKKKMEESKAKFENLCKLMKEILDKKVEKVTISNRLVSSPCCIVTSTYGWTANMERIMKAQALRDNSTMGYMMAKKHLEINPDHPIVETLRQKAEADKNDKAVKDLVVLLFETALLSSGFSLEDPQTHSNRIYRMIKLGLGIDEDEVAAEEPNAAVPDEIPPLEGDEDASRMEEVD

| Compound | IC50 (MCF7 [1]) [µM] | IC50 (SK-BR-3) [µM] | other results |
| --- | --- | --- | --- |
| COc1ccc(Cc2ccc3cc(NC(=O)c4ccc(OC)c(-c5cccc(OC)c5)c4)c(=O)oc3c2C)cc1 | > 100 | > 100 | – |
| COc1ccc(Oc2ccc3cc(NC(=O)c4ccc(O)c(CC=C(C)C)c4)c(=O)oc3c2C)cc1 | 6.51 | 42.7 | inhibition [2]: Active; inhibition [3]: Active; Activity [4]: inactive; inhibition [5]: Active |
| COc1cccc(Cc2ccc3cc(NC(=O)c4ccc(O)c(CC=C(C)C)c4)c(=O)oc3c2C)c1 | 19.7 | 14.8 | – |
| COCOc1ccc(Cc2ccc3cc(NC(=O)c4ccc(OC(C)=O)c(CC=C(C)C)c4)c(=O)oc3c2C)cc1OC | 14.9 | 14.2 | – |
| COc1cccc(-c2cc(C(=O)Nc3cc4ccc(Cc5ccccc5)c(C)c4oc3=O)ccc2OC)c1 | 7.11 | 4.09 | – |
| COc1ccc(Oc2ccc3cc(NC(=O)c4ccc(OC(C)=O)c(CC=C(C)C)c4)c(=O)oc3c2C)cc1 | 18.2 | 19.5 | – |
| CC(C)=CCc1cc(C(=O)Nc2cc3ccc(Cc4ccc(O)cc4)c(C)c3oc2=O)ccc1O | 32.1 | 21.5 | – |
| COc1ccc(Nc2ccc3cc(NC(=O)c4ccc(OC)c(-c5cccc(OC)c5)c4)c(=O)oc3c2C)cc1 | > 100 | > 100 | – |
| COc1ccc(Nc2ccc3cc(NC(=O)c4ccc(O)c(CC=C(C)C)c4)c(=O)oc3c2C)cc1 | > 100 | > 100 | – |
| COc1ccc(Cc2ccc3cc(NC(=O)c4ccc(O)c(CC=C(C)C)c4)c(=O)oc3c2C)cc1OC | 13.9 | > 100 | Ratio IC50 (MCF7 [6]): 10 |
| COc1cccc(Oc2ccc3cc(NC(=O)c4ccc(O)c(CC=C(C)C)c4)c(=O)oc3c2C)c1 | 62.8 | 33.1 | – |
| CC(C)=CCc1cc(C(=O)Nc2cc3ccc(Oc4ccc(C(C)(C)C)cc4)c(C)c3oc2=O)ccc1O | 20.6 | 68.3 | – |
| COc1ccc(Oc2ccc3cc(NC(=O)c4ccc(OC)c(-c5cccc(OC)c5)c4)c(=O)oc3c2C)cc1 | > 100 | > 100 | – |
| COCOc1ccc(Cc2ccc3cc(NC(=O)c4ccc(OC(C)=O)c(CC=C(C)C)c4)c(=O)oc3c2C)cc1 | 22.7 | 13.5 | – |
| COc1ccc(Cc2ccc3cc(NC(=O)c4ccc(O)c(CC=C(C)C)c4)c(=O)oc3c2C)cc1 | 13.2 | 11.1 | – |
| CC(=O)Oc1ccc(C(=O)Nc2cc3ccc(Oc4ccc(C(C)(C)C)cc4)c(C)c3oc2=O)cc1CC=C(C)C | 75 | 72.4 | – |
| COc1cccc(Oc2ccc3cc(NC(=O)c4ccc(OC(C)=O)c(CC=C(C)C)c4)c(=O)oc3c2C)c1 | 15.7 | 13.7 | – |
| COc1ccc(Cc2ccc3cc(NC(=O)c4ccc(OC(C)=O)c(CC=C(C)C)c4)c(=O)oc3c2C)cc1 | 11.5 | 23.5 | inhibition [2]: Active; inhibition [3]: Active; Activity [4]: inactive; inhibition [5]: Active |
| COc1cccc(-c2cc(C(=O)Nc3cc4ccc(Oc5ccc(C(C)(C)C)cc5)c(C)c4oc3=O)ccc2OC)c1 | > 100 | > 100 | – |
| COc1cc(Cc2ccc3cc(NC(=O)c4ccc(O)c(CC=C(C)C)c4)c(=O)oc3c2C)ccc1O | 14.6 | 10.7 | – |
| COc1ccc(Nc2ccc3cc(NC(=O)c4ccc(OC(C)=O)c(CC=C(C)C)c4)c(=O)oc3c2C)cc1 | > 100 | > 100 | – |
| COc1cccc(Oc2ccc3cc(NC(=O)c4ccc(OC)c(-c5cccc(OC)c5)c4)c(=O)oc3c2C)c1 | > 100 | > 100 | – |
